Patent US20250276009A1, “Therapeutic use of hydrogen sulfide in frostbite injury” ([(The)] London Health Sciences Centre Research Inc., priority 2024, published 2025)
Where two headings read alike, the source gives them in different places.

Legend:
[1] = test system: frostbite injury on the dorsal skin of C57BL/6 mice; assay: Frostbite wound size / wound healing after daily topical application of H2S donor in vehicle cream; type: in vivo, C57BL/6 mice (Mus musculus); settings: for frostbite wound size compared to vehicle-treated control mice / reduction of frostbite wound from day 4 to day 15 versus vehicle control: daily topical; for frostbite wound healing compared to vehicle control group: daily topical in vehicle cream until day 15; for reduction of frostbite wound from day 4 to day 15 versus vehicle control: 150 μM STS or 200 μmol/kg GYY4137 in hyaluronan/phosphatidylethanolamine vehicle cream
Source text: The Animal Use Committee of the University of Western Ontario approved all experimental procedures. The experimental procedures were considered as Category D from the Canadian Council of Animal Care's Categories of Invasiveness for Animal Experiments. A total of 25 […] mice aged between 8-10 weeks old were obtained from Charles River Canada (Senneville, Quebec, Canada) and housed 5 per cage under a 12-hour light/dark cycle at the Health Sciences Animal Care Facility at the University of Western Ontario (London, Ontario, Canada). Mice were randomly assigned to 5 groups being healthy control (n=5), crush control (n=5), vehicle control (n=5), 200 nM AP39 (n=5) and 1 μM AP39 (n=5).
To ease the process of skin preparation, mice were initially anesthetized with a combination of 20 mg/ml xylazine and 100 mg/mL ketamine intraperitoneally, and the dorsal fur of the animals were shaved using electric clippers from the top of the hind legs to the base of the neck. A depilatory cream was then used to remove any fur still remaining. General anesthesia was maintained by inhalation of 5% isoflurane and oxygen delivered at 400 mL/minute to minimize the time of recovery post-anesthesia. Following complete fur removal, the skin of the animal was cleaned completely of the hair removal cream using an alcohol prep pad. Next, a silicone sheet was used as a template to trace a uniform circle on the surface of the skin using a permanent marker. The circular outline on the back of the animal was used as a guide during frostbite injury (see FIGS. 1A to 1E).
The vehicle cream containing hyaluronan and phosphatidylethanolamine (referred to as HEPE) as active ingredients, was provided by Dr. Eva Turley, and allowed for delivery of AP39 to the vascularized layers of the dermis. AP39 was generously provided by Dr. Matthew Whiteman (Exeter, UK) and diluted to a stock concentration of 1 mM in DMSO. […] To prepare the cream+H2S donor compound, the H2S donor was added via micropipette combined by stirring and subsequent mixing using a vortex device to final concentrations of 200 nM, 1 µM and 150 μM.

cleaved caspase-3 = assay: Immunofluorescence staining of frostbite wound tissue, day 15: apoptosis marker; type: in vivo, C57BL/6 mice (Mus musculus); settings: daily topical in vehicle cream, day 15, vs vehicle control
Protocol: (§1) Based on a previously validated model [1], 100% ceramic magnets (diameter 18.0 mm, thickness 5.0 mm, weight 4.5 g) were used to induce frostbite injury. Magnets were frozen in dry ice (−80° C.) prior to animal skin preparation. The dorsal skin of C57BL/6 mice (Mus musculus) was pinched to create a skin fold and a silicone sheet was placed underneath as illustrated in FIG. 1D. The silicone sheet acted as a barrier to prevent the mice from possible systemic hypothermia while creating a precise injury and maximizing survival. Two frozen magnets were then placed on the skin from opposite sides of the skin fold such that they adhered with the middle of the circle outline at the peak of the fold's center as described by Auerbach et al., [1] and illustrated in FIG. 1D. After 1 minute, the magnets were removed and new frozen magnets simultaneously placed in order to keep the freezing temperature of the magnets consistent and ensured that no thawing of the skin occurred. A total of 3 magnet exchange cycles occurred in order to induce frostbite injury to the mice for 3 minutes after which the skin was allowed to thaw completely. […] The animals were placed on a heating pad set to 37° C. to mitigate the risk of death due to systemic hypothermia. Upon induction of frostbite injury, the mice were randomly assigned to the following groups: vehicle cream control, 200 nM AP39 plus vehicle cream, 1 μM AP39 plus vehicle cream, 150 μM STS plus vehicle cream, 200 μmol/kg GYY4137 plus vehicle cream, and received daily topical application of vehicle cream without H2S donor, vehicle cream containing 200 nM AP39 (200 μL), vehicle cream containing 1 μM AP39 (200 μL), vehicle cream containing 150 μM STS (200 μL) and vehicle cream containing 200 μmol/kg GYY4137 (200 μL) respectively until time of sacrifice.
Another group of mice that received no frostbite injury or room temperature magnet placement served as healthy controls. […]

KI-67 = assay: Immunofluorescence staining of frostbite wound tissue, day 15: proliferation marker; type: in vivo, C57BL/6 mice (Mus musculus); settings: for cell proliferation compared to vehicle control: daily topical in vehicle cream, day 15, p<0.001
Protocol: as §1
(§2) Post-procedure analgesia included administration of meloxicam at 1 mg/kg/day for 3 days. Another group of mice that received no frostbite injury or room temperature magnet placement served as healthy controls. All groups of mice were sacrificed by CO2 euthanasia on day 15 after frostbite induction or room temperature magnet placement, and samples of the injured dorsal skin tissue were collected and stored in 10% neutral buffered formalin for histopathological analysis. The animals were euthanized on day 15 because this is the time point at which markers of wound healing were expected to be best seen in the wound as previously reported [5].
(§3) Immunofluorescence staining was performed to detect the expression of cleaved caspase-3 (1:100; a marker for apoptosis and is being used to assess frostbite damage), CD31 (1:100; a marker of vascularization and angiogenesis, as it is found on early endothelial cells), KI-67 (1:50; a marker of proliferation, which is abundant in a healing wound as granulation tissue forms and re-epithelialization occurs), fibronectin (1:100; secreted by fibroblasts to generate granulation tissue, which is the new connective tissue that covers a wound.), cytokeratin (1:200; a marker of differentiation and proliferation of keratinocytes, which are important for re-epithelialization of a wound) and CD163 (1:200; a macrophage-specific marker during wound healing) [7, 8]. These antibodies were purchased from Abcam in Toronto, Canada to examine the degree of frostbite injury as well as important healing stages including angiogenesis, re-epithelialization, granulation tissue formation and inflammation. […]

CD31 = assay: Immunofluorescence staining of frostbite wound tissue, day 15: vascularization and angiogenesis marker; type: in vivo, C57BL/6 mice (Mus musculus); settings: for angiogenesis compared to vehicle control: daily topical in vehicle cream, day 15, p<0.01
Protocol: as §1, §2
(§4) Immunofluorescence staining was performed to detect the expression of cleaved caspase-3 (1:100; a marker for apoptosis and is being used to assess frostbite damage), CD31 (1:100; a marker of vascularization and angiogenesis, as it is found on early endothelial cells), KI-67 (1:50; a marker of proliferation, which is abundant in a healing wound as granulation tissue forms and re-epithelialization occurs), fibronectin (1:100; secreted by fibroblasts to generate granulation tissue, which is the new connective tissue that covers a wound.), cytokeratin (1:200; a marker of differentiation and proliferation of keratinocytes, which are important for re-epithelialization of a wound) and CD163 (1:200; a macrophage-specific marker during wound healing) [7, 8]. These antibodies were purchased from Abcam in Toronto, Canada to examine the degree of frostbite injury as well as important healing stages including angiogenesis, re-epithelialization, granulation tissue formation and inflammation. Following a rehydration step in xylene and decreasing series of alcohol (100%, 95%, 70% and 50%) and de-ionized water, the tissue sections were washed with 1× phosphate buffered saline (PBS) for 10 minutes.

fibronectin = assay: Immunofluorescence staining of frostbite wound tissue, day 15: granulation tissue marker; type: in vivo, C57BL/6 mice (Mus musculus); settings: for granulation tissue formation compared to vehicle control: daily topical in vehicle cream, day 15, p<0.001; for fibronectin expression: day 15
Protocol: as §1, §2, §4

CD163 = assay: Immunofluorescence staining of frostbite wound tissue, day 15: macrophage-specific marker; type: in vivo, C57BL/6 mice (Mus musculus); settings: for CD163 expression: day 15
Protocol: as §1, §2, §3

[2] = test system: frostbite injury on the dorsal skin of C57BL/6 mice; assay: Histopathological scoring (H&E) of frostbite wound tissue, day 15; type: in vivo, C57BL/6 mice (Mus musculus); settings: for progress of frostbite wound healing phase (histopathology, collective): daily topical in vehicle cream, day 15; for chronic inflammation (histological score 0-3) vs vehicle control: 200 μmol/kg GYY4137 or 150 μM STS
Protocol: The formalin-fixed skin tissue samples were embedded in paraffin blocks and sectioned at 8-μm thick on a microtome and collected on SuperFrost Plus® glass slides (J1800AMNZ, Thermo Fisher Scientific Inc., Germany). Histology was performed on the tissue sections using hematoxylin and eosin (H&E) staining to visualize general tissue morphology and assess the degree of tissue injury. A modified version of a previously developed histological scoring system established by Abramov et al was used for this study. The histopathological scoring was assessed blindly by a dermatopathologist for 5 parameters of healing (acute inflammation, chronic inflammation, amount of granulation tissue, fibroblast maturation and re-epithelialization) and assigned a score as per the following scheme: 0=None; 1=Scant; 2=Moderate; 3=Abundant. Acute inflammation was scored based on the presence of neutrophils while chronic inflammation was evaluated based on the presence of plasma cells and monocytes. Fibroblast maturation was determined on the basis of shape and alignment of these cells.

cytokeratin = settings: day 15
Protocol: as §1
Post-procedure analgesia included administration of meloxicam at 1 mg/kg/day for 3 days. Another group of mice that received no frostbite injury or room temperature magnet placement served as healthy controls. All groups of mice were sacrificed by CO2 euthanasia on day 15 after frostbite induction or room temperature magnet placement, and samples of the injured dorsal skin tissue were collected and stored in 10% neutral buffered formalin for histopathological analysis. The animals were euthanized on day 15 because this is the time point at which markers of wound healing were expected to be best seen in the wound as previously reported [5]. […]

[3] = 1 μM AP39, relative to 200 nM AP39, day 15, p<0.05
[4] = 1 μM AP39 vs 200 nM AP39 and vehicle control, day 15, p<0.05
[5] = 150 μM STS with Nivea, vs Nivea alone
[6] = 150 μM STS in Aveeno vs Aveeno without STS
[7] = 150 μM STS in Dove vs Dove without STS
[8] = 150 μM STS in Neutrogena vs Neutrogena without STS
[9] = 150 μM STS in Nivea vs Nivea without STS

## O=C(CCCCCCCCC[P+](c1ccccc1)(c1ccccc1)c1ccccc1)Oc1ccc(-c2cc(=S)ss2)cc1.[Br-] [AP39, (10-oxo-10-(4-(3-thioxo-3H-1,2-dithiol-5-yl)phenoxy)decyl)triphenylphosphonium bromide]
[1]; 200 nM AP39 in vehicle cream containing hyaluronan and phosphatidylethanolamine, day 4 to day 15
  frostbite wound size compared to vehicle-treated control mice: progressively reduced wound size
[1]; 1 μM AP39 in vehicle cream containing hyaluronan and phosphatidylethanolamine, day 4 to day 15
  frostbite wound size compared to vehicle-treated control mice: progressively reduced wound size
[1]
  frostbite wound healing compared to vehicle control group: improved wound healing
Cleaved caspase-3
  apoptosis in frostbite injury (cleaved caspase-3 expression): no effect
KI-67; 200 nM AP39, day 15, p<0.05
  KI-67 expression: markedly expressed
KI-67; [3]
  KI-67 expression: significantly reduced
KI-67
  cell proliferation compared to vehicle control: improved
CD31; 200 nM AP39, day 15, p<0.05
  CD31 expression: markedly expressed
CD31; [3]
  CD31 expression: significantly reduced
CD31
  angiogenesis compared to vehicle control: improved
fibronectin; 200 nM AP39, day 15
  fibronectin expression compared to vehicle control mice: significantly increased expression
fibronectin; 1 μM AP39, day 15
  fibronectin expression compared to vehicle control mice: significantly increased expression
fibronectin
  granulation tissue formation compared to vehicle control: improved
CD163; 200 nM AP39, day 15
  CD163 expression (M2-like anti-inflammatory macrophages): increased anti-inflammatory activity
[2]; 200 nM AP39, day 15, p>0.05
  chronic inflammation (histological score 0-3): did not change
[2]; 200 nM AP39 vs 1 μM AP39 and vehicle control, day 15, p<0.05
  fibroblast maturation (histological score 0-3): highest
[2]; 1 μM AP39, day 15, p>0.05
  chronic inflammation (histological score 0-3): did not change
[2]; [4]
  acute inflammation (histological score 0-3): significantly greater
  amount of granulation tissue (histological score 0-3): markedly increased
[2]; AP39 (200 nM and 1 μM) vs vehicle control, day 15, p>0.05
  wound re-epithelialization (histological score 0-3): increased wound re-epithelialization (epithelial restitution) albeit not significantly different
[2]
  progress of frostbite wound healing phase (histopathology, collective): hastened frostbite wound healing from inflammatory to proliferative phase

## O=S([O-])([O-])=S.[Na+].[Na+] [STS, sodium thiosulfate]
[1]; 150 μM STS in commercially available creams (Aveeno, Dove, Neutrogena, Nivea), day 4 to day 15
  wound size compared to the corresponding vehicle control without STS: progressively reduced wound size
[1]
  reduction of frostbite wound from day 4 to day 15 versus vehicle control: slightly smaller than that of the vehicle control
  frostbite wound healing compared to vehicle control group: improved wound healing
[1]; 150 μM STS with Aveeno, vs Aveeno alone
  wound size, day 15: reduced wound size
[1]; 150 μM STS with Dove, vs Dove alone
  wound size, day 15: reduced wound size
[1]; [5]
  wound size, day 4: reduced wound size
  wound size, day 15: reduced wound size
[1]; STS via Aveeno and Nivea creams compared to Dove and Neutrogena
  wound healing, comparison of delivery creams: improved wound healing compared to Dove® and Neutrogena®
Cleaved caspase-3
  apoptosis in frostbite injury (cleaved caspase-3 expression): no effect
KI-67
  cell proliferation compared to vehicle control: improved
CD31; 150 μM STS in Aveeno vs Aveeno without STS, day 15
  CD31 expression: significant upregulation
CD31; 150 μM STS in Dove vs Dove without STS, day 15
  CD31 expression: significant upregulation
CD31; 150 μM STS in Neutrogena vs Neutrogena without STS, day 15
  CD31 expression: No significant change
CD31; 150 μM STS in Nivea vs Nivea without STS, day 15
  CD31 expression: significant upregulation
CD31
  angiogenesis compared to vehicle control: improved
fibronectin; [6]
  fibronectin expression: significantly increased
fibronectin; [7]
  fibronectin expression: did not increase fibronectin expression significantly
fibronectin; [8]
  fibronectin expression: did not increase fibronectin expression significantly
fibronectin; [9]
  fibronectin expression: significantly increased
fibronectin
  granulation tissue formation compared to vehicle control: improved
CD163; [6]
  CD163 expression: significant increase
CD163; [7]
  CD163 expression: significant increase
CD163; [8]
  CD163 expression: decrease in CD163 expression albeit not significant
CD163; [9]
  CD163 expression: significant increase
cytokeratin; [6]
  cytokeratin expression: significantly increased
cytokeratin; [7]
  cytokeratin expression: No significant change
cytokeratin; [8]
  cytokeratin expression: significantly increased
cytokeratin; [9]
  cytokeratin expression: significantly increased
[2]; day 15, p>0.05
  chronic inflammation (histological score 0-3) vs vehicle control: did not show significant difference
[2]
  progress of frostbite wound healing phase (histopathology, collective): hastened frostbite wound healing from inflammatory to proliferative phase

## C1COCCN1.COc1ccc(P(=S)(S)N2CCOCC2)cc1 (centres unmarked) [GYY4137]
[1]
  reduction of frostbite wound from day 4 to day 15 versus vehicle control: slightly smaller than that of the vehicle control
  frostbite wound healing compared to vehicle control group: improved wound healing
Cleaved caspase-3
  apoptosis in frostbite injury (cleaved caspase-3 expression): no effect
KI-67
  cell proliferation compared to vehicle control: improved
CD31
  angiogenesis compared to vehicle control: improved
fibronectin
  granulation tissue formation compared to vehicle control: improved
[2]; day 15, p>0.05
  chronic inflammation (histological score 0-3) vs vehicle control: did not show significant difference
[2]
  progress of frostbite wound healing phase (histopathology, collective): hastened frostbite wound healing from inflammatory to proliferative phase
